Results taken from patent US20250325677A1, “STAT6 DEGRADERS” (Gilead Sciences, Inc., priority 2024, published 2025).

Assays:
[1] = biological target: STAT6 (Homo sapiens (Human), UniProt P42226); experiment: STAT6 degrader assay (HiBiT, HeLa LgBiT clone 4.14); format: cell-based; conditions: HeLa LgBiT clone 4.14, 4-24 h; geometric mean; given for compounds with >80% Emax; read-out: STAT6 degradation DC50
Outline: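 HeLa LgBiT clone 4.14 cells with HiBiT knocked into endogenous STAT6 were treated with compound for 4-24 h at 37° C. Luminescence after Nano-GLO substrate (0.5 h) measured remaining STAT6; 50 μM terfenadine wells defined 100% degradation, and DC50 (nM) was derived.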

[2] = tested on: eotaxin-3 release; experiment: Human whole blood eotaxin-3 assay (IL-4 stimulated); format: cell-based; conditions: human whole blood, IL-4 0.4 nM, 48 hours; geometric mean; given for compounds with >80% Emax; read-out: Eotaxin-3 EC50
Protocol: Human Whole Blood Eotaxin-3 Assay
This was a human whole blood assay using recombinant human Interleukin 4 to stimulate the blood and measuring the ability of the test compounds to inhibit eotaxin-3 release. Compounds or media were added to the wells and incubated together with human whole blood for 120 minutes at 37° C. Subsequently, recombinant IL-4 was added at a final concentration of 0.4 nM. The plates were incubated for 48 hours.
Test compounds which inhibited eotaxin-3 release upon stimulation with human IL-4 (E. coli) interfered with the signaling in human whole blood are expected to have activity in human beings. […] The EC50 value indicates at which concentration test compounds were active and in inhibiting the eotaxin-3 release. As eotaxin-3 release is down-stream of STAT6 signaling both STAT6 inhibitors and STAT6 degraders are active in this assay.
The data from the human whole blood eotaxin-3 assay is shown below for Examples 3e27, 3e50, 3e17, and 3e51 (where the effect in % is plotted against the test concentration in M on a log-scale).

Sequence of STAT6 (P42226 whole entry): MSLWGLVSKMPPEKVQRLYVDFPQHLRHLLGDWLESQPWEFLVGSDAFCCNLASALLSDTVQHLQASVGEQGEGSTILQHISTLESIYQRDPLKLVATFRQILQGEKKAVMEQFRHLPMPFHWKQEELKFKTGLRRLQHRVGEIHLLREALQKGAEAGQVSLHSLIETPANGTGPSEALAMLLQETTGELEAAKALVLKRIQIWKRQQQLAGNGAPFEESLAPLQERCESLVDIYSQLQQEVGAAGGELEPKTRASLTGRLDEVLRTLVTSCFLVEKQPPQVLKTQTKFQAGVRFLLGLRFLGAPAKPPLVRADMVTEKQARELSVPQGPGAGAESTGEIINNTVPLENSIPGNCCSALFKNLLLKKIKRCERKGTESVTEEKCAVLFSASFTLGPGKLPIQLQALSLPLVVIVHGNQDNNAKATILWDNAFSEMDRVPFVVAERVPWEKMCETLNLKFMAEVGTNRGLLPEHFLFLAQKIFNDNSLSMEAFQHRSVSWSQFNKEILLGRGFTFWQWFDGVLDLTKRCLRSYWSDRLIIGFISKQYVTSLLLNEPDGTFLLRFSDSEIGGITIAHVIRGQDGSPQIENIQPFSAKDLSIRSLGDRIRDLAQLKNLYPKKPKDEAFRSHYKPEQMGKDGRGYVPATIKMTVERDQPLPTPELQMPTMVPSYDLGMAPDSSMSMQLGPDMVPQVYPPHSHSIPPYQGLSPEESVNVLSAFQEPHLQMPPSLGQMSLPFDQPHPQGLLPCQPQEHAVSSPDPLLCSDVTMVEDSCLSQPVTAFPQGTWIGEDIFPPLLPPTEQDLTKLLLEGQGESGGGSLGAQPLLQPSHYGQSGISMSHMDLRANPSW

DC50 [1] [nM] | EC50 [2] [nM] | SMILES
0.8 | 3.1 | C[C@H]1CN(Cc2ccc3c(c2)n(C2CC2)c(=O)n3[C@@H]2CCC(=O)NC2=O)CCN1CC1CCN(C(=O)c2ccc(C3CCN([C@@H](C)c4cc5c(-c6ccc(N)nc6)ccnc5n4C)CC3)cc2)CC1 (single isomer, unassigned) [Example 3e51]
0.8 | 2.8 | C[C@H]1CN(Cc2ccc3c(c2)n(C2CC2)c(=O)n3C2CCC(=O)NC2=O)CCN1CC1CCN(C(=O)c2ccc(C3CCN([C@@H](C)c4cc5c(-c6ccc(N)nc6)ccnc5n4C)CC3)cc2)CC1 (stereo partly drawn) [Example 3e17, 3-(5-(((S)-4-((1-(4-(1-((S)-1-(4-(6-aminopyridin-3-yl)-1-methyl-1H-pyrrolo[2,3-b]pyridin-2-yl)ethyl)piperidin-4-yl)benzoyl)piperidin-4-yl)methyl)-3-methylpiperazin-1-yl)methyl)-3-cyclopropyl-2-oxo-2,3-dihydro-1H-benzo[d]imidazol-1-yl)piperidine-2,6-dione]
2.2 | 4.9 | C[C@H]1CN(Cc2ccc3c(c2)n(C)c(=O)n3C2CCC(=O)NC2=O)CCN1CC1CCN(C(=O)c2ccc(C3CCN([C@@H](C)c4cc5c(-c6cnc(N)c(F)c6)ccnc5n4C)CC3)cc2)CC1 (stereo partly drawn) [Example 3e47, 3-(5-(((S)-4-((1-(4-(1-((S)-1-(4-(6-amino-5-fluoropyridin-3-yl)-1-methyl-1H-pyrrolo[2,3-b]pyridin-2-yl)ethyl)piperidin-4-yl)benzoyl)piperidin-4-yl)methyl)-3-methylpiperazin-1-yl)methyl)-3-methyl-2-oxo-2,3-dihydro-1H-benzo[d]imidazol-1-yl)piperidine-2,6-dione]
2.8 | 4.6 | C[C@@H](c1cc2c(-c3ccc(N)nc3)ccnc2n1C)N1CCC(c2ccc(C(=O)N3CCC(CN4CCN(Cc5ccc6c(c5)n(C)c(=O)n6C5CCC(=O)NC5=O)C[C@H]4C(F)(F)F)CC3)cc2)CC1 (stereo partly drawn) [Example 3e43, 3-(5-(((S)-4-((1-(4-(1-((S)-1-(4-(6-aminopyridin-3-yl)-1-methyl-1H-pyrrolo[2,3-b]pyridin-2-yl)ethyl)piperidin-4-yl)benzoyl)piperidin-4-yl)methyl)-3-(trifluoro-methyl)piperazin-1-yl)methyl)-3-methyl-2-oxo-2,3-dihydro-1H-benzo[d]imidazol-1-yl)piperidine-2,6-dione]
– | 31.7 | C[C@H]1CN(Cc2cc3c(cc2F)N(C2CCC(=O)NC2=O)C(=O)C3(C)C)CCN1CC1CCN(C(=O)c2ccc(C3CCN([C@@H](C)c4cc5c(-c6ccc(N)nc6)ccnc5n4C)CC3)cc2)CC1 (stereo partly drawn) [Example 3h35, 3-(5-(((S)-4-((1-(4-(1-((S)-1-(4-(6-aminopyridin-3-yl)-1-methyl-1H-pyrrolo[2,3-b]pyridin-2-yl)ethyl)piperidin-4-yl)benzoyl)piperidin-4-yl)methyl)-3-methylpiperazin-1-yl)methyl)-6-fluoro-3,3-dimethyl-2-oxoindolin-1-yl)piperidine-2,6-dione]
– | 2.6 | C[C@H]1CN(Cc2ccc3c(c2)C2(CC2)C(=O)N3C2CCC(=O)NC2=O)CCN1CC1CCN(C(=O)c2ccc(C3CCN([C@@H](C)c4cc5c(-c6ccc(N)nc6)ccnc5n4C)CC3)cc2)CC1 (stereo partly drawn) [Example 3h29, 3-(5′-(((S)-4-((1-(4-(1-((S)-1-(4-(6-aminopyridin-3-yl)-1-methyl-1H-pyrrolo[2,3-b]pyridin-2-yl)ethyl)piperidin-4-yl)benzoyl)piperidin-4-yl)methyl)-3-methylpiperazin-1-yl)methyl)-2′-oxospiro[cyclopropane-1,3′-indolin]-1′-yl)piperidine-2,6-dione]

Second part, the compound before the results:

SMILES | DC50 [1] [nM] | EC50 [2] [nM]
C[C@H]1CN(Cc2ccc3c(c2)n(C)c(=O)n3[C@@H]2CCC(=O)NC2=O)CCN1CC1CCN(C(=O)c2ccc(C3CCN(Cc4cc5c(-c6ccc(N)nc6)ccnc5n4C)CC3)cc2)CC1 (single isomer, unassigned) [Example 3e20] | 1.1 | 29.8
CNc1ccc(-c2ccnc3c2cc([C@H](C)N2CC=C(c4c(C)cc(C(=O)N5CCC(CN6CCN(Cc7cc8c(cc7F)N(C7CCC(=O)NC7=O)C(=O)C87CC7)CC6)CC5)cc4F)CC2)n3C)cn1 (stereo partly drawn) [Example 3h34, 3-(6′-fluoro-5′-((4-((1-(3-fluoro-5-methyl-4-(1-((S)-1-(1-methyl-4-(6-(methylamino)pyridin-3-yl)-1H-pyrrolo[2,3-b]pyridin-2-yl)ethyl)-1,2,3,6-tetrahydropyridin-4-yl)benzoyl)piperidin-4-yl)methyl)piperazin-1-yl)methyl)-2′-oxospiro[cyclopropane-1,3′-indolin]-1′-yl)piperidine-2,6-dione] | 5.5 | 8.5
COCc1nc2cc(-c3ccnc4c3cc([C@H](C)N3CCC(c5ccc(C(=O)N6CCC(CN7CCN(Cc8ccc9c(c8)n(C8CC8)c(=O)n9C8CCC(=O)NC8=O)C[C@@H]7C)CC6)cc5)CC3)n4C)ccc2[nH]1 (stereo partly drawn) [Example 3e27, 3-(3-cyclo-propyl-5-(((S)-4-((1-(4-(1-((S)-1-(4-(2-(methoxymethyl)-1H-benzo[d]imidazol-5-yl)-1-methyl-1H-pyrrolo[2,3-b]pyridin-2-yl)ethyl)piperidin-4-yl)benzoyl)piperidin-4-yl)methyl)-3-methylpiperazin-1-yl)methyl)-2-oxo-2,3-dihydro-1H-benzo[d]imidazol-1-yl)piperidine-2,6-dione] | 0.4 | 2.7
C[C@@H](c1cc2c(-c3ccc(N)nc3)ccnc2n1C)N1CCC(c2ccc(C(=O)N3CCC(CN4CCN(Cc5cc6c(cc5Cl)n(C5CCC(=O)NC5=O)c(=O)n6C)CC4)CC3)cc2)CC1 (stereo partly drawn) [Example 3e30, 3-(5-((4-((1-(4-(1-((S)-1-(4-(6-aminopyridin-3-yl)-1-methyl-1H-pyrrolo[2,3-b]pyridin-2-yl)ethyl)piperidin-4-yl)benzoyl)piperidin-4-yl)methyl)piperazin-1-yl)methyl)-6-chloro-3-methyl-2-oxo-2,3-dihydro-1H-benzo[d]imidazol-1-yl)piperidine-2,6-dione] | 7.2 | 36.9
Cn1c(CN2CCC(c3ccc(C(=O)N4CCC(CN5CCN(Cc6ccc7c(c6)n(C)c(=O)n7C6CCC(=O)NC6=O)CC5)CC4)cc3)CC2)cc2c(-c3ccc(N)nc3)ccnc21 (stereo not shown) [Example 3e2, 3-(5-((4-((1-(4-(1-((4-(6-aminopyridin-3-yl)-1-methyl-1H-pyrrolo[2,3-b]pyridin-2-yl)methyl)piperidin-4-yl)benzoyl)piperidin-4-yl)methyl)piperazin-1-yl)methyl)-3-methyl-2-oxo-2,3-dihydro-1H-benzo[d]imidazol-1-yl)piperidine-2,6-dione] | 4.6 | 98.7
C[C@H]1CN(Cc2ccc3c(c2)n(C)c(=O)n3C2CCC(=O)NC2=O)CCN1CC1CCN(C(=O)c2ccc(C3CCN([C@@H](C)c4cc5c(-c6ccc(N)nc6C#N)ccnc5n4C)CC3)cc2)CC1 (stereo partly drawn) [Example 3e55, 6-amino-3-(2-((1S)-1-(4-(4-(4-(((2S)-4-((1-(2,6-dioxopiperidin-3-yl)-3-methyl-2-oxo-2,3-dihydro-1H-benzo[d]imidazol-5-yl)methyl)-2-methylpiperazin-1-yl)methyl)piperidine-1-carbonyl)phenyl)-piperidin-1-yl)ethyl)-1-methyl-1H-pyrrolo[2,3-b]pyridin-4-yl)picolinonitrile] | 0.5 | 1.5
